Test [1] deals with Ub Ser65 phosphorylation. The test is described as follows: Phospho-Ub (Ub Ser65) immunoblotting in parkin- or YFP-parkin-transfected HeLa cells. Type of test: cell-based. Conditions: for inhibition of PINK1-mediated ubiquitin phosphorylation (summary statement): in cells and astrocytes, induced by mitochondrial depolarizing agents CCCP and niclosamide. The method, then: (§1) Both HeLa and parkin-overexpressed HeLa cells were maintained in DMEM high glucose (Gibco), 10% FBS (Sigma-Aldrich) at 37° C. with 5% CO2. For experiments, cells were counted and seeded into a range of culture plates, depending on the experiment, cell counting was done using the Cellometer Auto T4 with TrypanBlue (Gibco). […] Alternatively, HeLa cells were seeded in well plates and then transfected with […] of parkin cDNA using the PEI method once the plated cells reached 60% confluency. After 6 hours, the media was changed. Sub-culturing was done when the cells reached ˜90% confluency.
(§2) Cell culture with 70-80% confluency was lysed as follows: cells were washed with Phosphate Buffer Saline (PBS) (Sigma). 150 μl of lysis buffer was used on each well containing either: • 50 mM Tris-HCl pH 7.5, 1 mM EDTA, 1 mM EGTA, 0.27 M sucrose, 1 mM Na3VO4, 50 mM NaF, 5 mM Na pyrophosphate and fresh 1 mM benzamidine, 1% NP-40 and […]; or • 50 mM Tris-HCl pH 7.5, 1 mM EDTA, 1 mM EGTA, 10 mM Na β-glycerophosphate, 0.27 M sucrose, 1 mM Na3VO4, 50 mM NaF, 10 mM Na pyrophosphate with fresh 1 mM benzamidine, 1% Triton X-100, complete EDTA-free Protease Inhibitor, Phosphatase inhibitor cocktail 3 and 100 μM of 2-chloroacetamide.
(§3) The cells were scrapped and transferred to the microtube and eventually spun down at 12,000 rpm for 15 minutes at 4° C. Finally, the supernatant was transferred to the new microtubes and stored at −20° C. Protein concentration was measured using Bradford Assay. Serial concentrations 0.125; 0.25; 0.5 and 1 mg/ml of Bovine Serum Albumin (BSA) (Sigma Aldrich) were used as a standard. Samples were boiled at 90° C. for 5 minutes in SDS sample loading buffer.
The next day membranes were washed in TBST and incubated with horse radish peroxidase (HRP)-conjugated antibodies for 1 h at room temperature with agitation. Following TBST washes, proteins were visualised using Amersham™ ECL™ Prime kit (GE Biosciences) and imaged using the Bio-rad ChemicDoc. Primary antibodies used for western blotting; GAPDH (Abcam cat #ab9485), Phospho-Ub Ser 65 (Sigma-Aldrich cat #ABS1513-1), LC3B (Cell Signaling cat #3868S). Secondary antibodies used for western blotting; anti-rabbit HRP (Agilent Dako cat #P0399), anti-mouse HRP (Agilent Dako cat #P0260).
(§4) To explore this, we first treated parkin-transfected HeLa cells for 24 h with 50 μM kinetin, kinetin riboside or kinetin riboside ProTide, a monophosphate prodrug of kinetin riboside.
For orientation: Immunoblotting shows a protein as a band on a membrane.

The target of test [2] is T1, PINK1 (Homo sapiens, UniProt Q9BXM7).
T1 construct: HeLa cells, which express PINK1 endogenously; endogenous in cells; host or cells: HeLa cells transiently transfected with parkin
The test is described as follows: PINK1 activation in cells judged by parkin Ser65 phosphorylation (parkin-transfected HeLa cells). Type of test: cell-based. Conditions: 50 μM, 1 h. The method, then: as §1, §2, §3

The subject of test [3] is ubiquitin Ser65 phosphorylation. The test is described as follows: Ubiquitin Ser65 phosphorylation in astrocytes with or without valinomycin. Type of test: cell-based. The method, then:
Briefly, astrocytes were treated with 50 μM of the nucleobase kinetin, nucleosides 9a and 9c or DMSO for 24 h and 5 h prior to lysis, the samples were treated with 50 nM valinomycin, a mitochondrial uncoupler.

For test [4], the system named is OPA1. The test is described as follows: OPA1 cleavage immunoblot (mitochondrial membrane depolarization) in parkin-transfected HeLa cells. Format: cell-based. Conditions: 50 μM 24 h, then 10 μM CCCP 3 h. The method, then: as §1, §2, §3, §4
Test [5] deals with HeLa cells transfected with YFP-parkin. The test is described as follows: TMRM fluorescence (mitochondrial membrane potential). Particulars: pre-treatment 50 μM 24 h; data not shown. Type of test: cell-based. The protocol:
For assessing tetramethylrhodamine methyl ester perchlorate (TMRM) fluorescence, cell media was removed and replaced with cell media consisting of 5 nM TMRM (ThermoFisher) and 10 μg/ml Hoechst 33258 stain for 30 mins in the dark at 37° C. to allow incorporation of TMRM into mitochondria. Following PBS washes, FluoroBrite DMEM (Gibco) media was added to cells, followed by subsequent imaging using a Zeiss LSM800 microscope at 37° C. with 5% CO2.

For test [6], the target named is T1, PINK1. Conditions: evidenced by parkin Ser65 phosphorylation; cited from earlier work.

T1 sequence (Q9BXM7 78-581): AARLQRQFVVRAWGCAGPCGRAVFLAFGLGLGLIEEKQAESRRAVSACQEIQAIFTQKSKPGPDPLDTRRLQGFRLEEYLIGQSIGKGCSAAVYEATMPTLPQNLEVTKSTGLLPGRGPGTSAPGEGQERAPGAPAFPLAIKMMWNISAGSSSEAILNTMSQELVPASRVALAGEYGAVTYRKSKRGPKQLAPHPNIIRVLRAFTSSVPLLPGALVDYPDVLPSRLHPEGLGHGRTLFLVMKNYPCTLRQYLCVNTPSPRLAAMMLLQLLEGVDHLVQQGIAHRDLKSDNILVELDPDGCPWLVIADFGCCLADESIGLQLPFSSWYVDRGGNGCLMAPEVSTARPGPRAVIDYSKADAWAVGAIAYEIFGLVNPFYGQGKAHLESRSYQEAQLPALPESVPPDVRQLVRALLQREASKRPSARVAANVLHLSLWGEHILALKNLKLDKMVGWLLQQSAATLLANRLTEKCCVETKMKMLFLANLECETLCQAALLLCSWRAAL

As for `OC[C@H]1O[C@@H](n2cnc3c(NCc4ccccc4)ncnc32)[C@H](O)[C@@H]1O` [9c, (2R,3R,4S,5R)-2-(6-(benzylamino)-9H-purin-9-yl)-5-(hydroxymethyl)tetrahydrofuran-3,4-diol], the “inhibition of PINK1-mediated ubiquitin phosphorylation (summary statement)” value in test [1] is on record as “inhibit ubiquitin phosphorylation”. Further, in test [2], the “activation of PINK1 as judged by parkin Ser65 phosphorylation” value was “low level activation of PINK1”. Further, the “ubiquitin Ser65 phosphorylation after pre-treatment followed by valinomycin, compared to valinomycin alone” value in test [3] (50 μM 24 h, 50 nM valinomycin for 5 h) is listed as “significant suppression of ubiquitin Ser65 phosphorylation”. Further, the “ubiquitin Ser65 phosphorylation, compound alone” value in test [3] (50 μM, 24 h) is reported as “increased phosphorylation”.

As for `OC[C@H]1O[C@@H](n2cnc3c(NCc4ccco4)ncnc32)[C@H](O)[C@@H]1O` [kinetin riboside, N^6-(2-furanylmethyl) adenosine], the “inhibition of CCCP-induced phosphorylation of ubiquitin by pre-treatment” value is recorded as “inhibited” in test [1] (YFP-parkin HeLa cells, 50 μM 24 h, then 10 μM CCCP 1 h, immunoblot) and “inhibited the CCCP-induced phosphorylation of ubiquitin” in test [1] (parkin-transfected HeLa cells, 50 μM 24 h, then 10 μM CCCP 3 h, immunoblot). The “inhibition of niclosamide-induced phosphorylation of ubiquitin by pre-treatment” value in test [1] (YFP-parkin HeLa cells, 50 μM 24 h, then 10 μM niclosamide 1 h, immunoblot) is listed as “inhibited”. The “inhibition of PINK1-mediated ubiquitin phosphorylation (summary statement)” value in test [1] is given as “inhibit ubiquitin phosphorylation”. For the same compound, the “phosphorylation of ubiquitin (Ub Ser65), compound alone” value in test [1] (parkin-transfected HeLa cells, 50 μM, 24 h, no CCCP, immunoblot) is reported as “did not lead to any notable phosphorylation of ubiquitin”. In test [4], the “prevention of OPA1 cleavage by pre-treatment” value is “did not prevent this effect”. The “prevention of membrane potential collapse caused by niclosamide and CCCP” value in test [5] is “did not prevent the membrane potential collapse”. Moreover, in test [2], the “activation of PINK1 as judged by parkin Ser65 phosphorylation” value is on record as “low level activation of PINK1”. Moreover, the “CCCP-independent activation of PINK1 in cells, compared to kinetin” value in test [6] is on record as “more potent CCCP-independent activation of PINK1”.
